In data set [1] the test system is Chikungunya virus. Put plainly: Antiviral activity against Chikungunya virus Sri Lanka strain infected in African green monkey Vero E6 cells assessed as inhibition of virus-induced cytopathic effect incubated for 72 hrs by CellTiter Glo luminescence assay. The format is functional, organism-based. The conditions noted are these: Vero C1008, 72 h. In general terms: Protection from cytopathic effect is a common read-out in antiviral testing.

Data set [2] is described as follows: Cytotoxicity against African green monkey VeroE6 cells assessed as reduction in cell viability incubated for 72 hrs by CellTiter Glo luminescence analysis. The format is toxicity, cell-based, Vero C1008. The conditions noted are these: chlorocebus sabaeus. For orientation: ATP-based viability assays read luminescence as a measure of living cells.
The test system of data set [3] is Chikungunya virus. As to the kind of experiment: Antiviral activity against Chikungunya virus 181/25 infected in human NHDF cells assessed as reduction of virus titer treated with cells at 1 hr prior to infection and measured at 24 hrs post-infection by plaque assay. The data set is classed as functional, organism-based. Particulars: 181/25, NHDF; for EC90: time 25 hrs.

The nature of data set [4]: Cytotoxicity against human NHDF cells assessed as reduction in cell viability incubated for 24 hrs by CellTiter Glo luminescence assay. The format is toxicity, cell-based.
For data set [5], the system named is Chikungunya virus. As to the kind of experiment: Antiviral activity against Chikungunya virus infected in human NHDF cells assessed as inhibition of viral production by NanoLuc reporter assay. The data set is classed as functional, organism-based. A general note: A reporter such as luciferase makes a cellular process visible.
The test system of data set [6] is Chikungunya virus. As to the kind of experiment: Antiviral activity against Chikungunya virus 181/25 infected in human NHDF cells assessed as log reduction of virus titer at 10 uM treated with cells at 1 hr prior to infection and measured at 24 hrs post-infection by plaque assay. The format is functional. The conditions noted are these: time 25 hrs.
The nature of data set [7]: Cytotoxicity against human NHDF cells deficient of IRF3 assessed as reduction in cell viability incubated for 72 hrs by CellTiter Glo luminescence assay. The data set is classed as toxicity, cell-based.
The nature of data set [8]: Kinetic solubility of the compound in simulated intestinal fluid at pH 7.5 by LC-MS analysis. The data set is classed as physicochemical. Particulars: read-out: Kinetic_solubility.
The nature of data set [9]: Octanol/PBS buffer distribution coefficient, logD of the compound at pH 7.5 by LC-MS analysis. The format is physicochemical.
Data set [10] can be described thus: Half life of the compound in mouse liver microsomes in presence of NADPH by LC-MS/MS analysis. The format is ADME, Microsome.
Data set [11] in a line: Half life of the compound in human liver microsomes in presence of NADPH by LC-MS/MS analysis. The data set is classed as ADME, Microsome.
Data set [12] has as its system Venezuelan equine encephalitis virus. As to the kind of experiment: Antiviral activity against VEEV TC-83 infected in human NHDF cells assessed as reduction of virus titer treated with cells at 1 hr prior to infection and measured at 24 hrs post-infection by plaque assay. The format is functional. The conditions noted are these: TC-83, NHDF, time 25 hrs.
Data set [13] shares this test system. Put plainly: Antiviral activity against VEEV TC-83 infected in human NHDF cells assessed as log reduction of virus titer at 10 uM treated with cells at 1 hr prior to infection and measured at 24 hrs post-infection by plaque assay. The format is functional. The conditions noted are these: time 25 hrs.
The test system of data set [14] is West Nile virus. Put plainly: Antiviral activity against West Nile virus NY99 infected in human HEK293 cells assessed as reduction of virus load measured at 3 days post-infection by focus-forming assay. The data set is classed as functional. The conditions noted are these: NY99, HEK293, 72 h, time 3 day.
For data set [15], the system named is West Nile virus. As to the kind of experiment: Antiviral activity against West Nile virus NY99 infected in human HEK293 cells assessed as log reduction of virus titer at 10 uM measured at 3 days post-infection by focus-forming assay. The format is functional. Particulars: time 3 day.
The test system of data set [16] is dengue virus type 2. Put plainly: Antiviral activity against Dengue virus 2 NGC infected in human HEK293 cells assessed as reduction of virus load measured at 3 days post-infection by focus-forming assay. The data set is classed as functional. The conditions noted are these: HEK293, 72 h, time 3 day.
Data set [17] has as its system dengue virus type 2. Put plainly: Antiviral activity against Dengue virus 2 NGC infected in human HEK293 cells assessed as log reduction of virus titer at 10 uM measured at 3 days post-infection by focus-forming assay. The format is functional. Particulars: time 3 day.
Data set [18] concerns Zika virus. As to the kind of experiment: Antiviral activity against Zika virus PRABC59 infected in human HEK293 cells assessed as reduction of virus load measured at 3 days post-infection by focus-forming assay. The format is functional. The conditions noted are these: PRABC59, HEK293, 72 h, time 3 day.
Data set [19] has as its system Zika virus. As to the kind of experiment: Antiviral activity against Zika virus PRABC59 infected in human HEK293 cells assessed as log reduction of virus titer at 10 uM measured at 3 days post-infection by focus-forming assay. The data set is classed as functional. Particulars: time 3 day.
Data set [20] in a line: Cytotoxicity against human HEK293 cells. The format is toxicity, cell-based.

One may read the EC50 as the concentration needed to bring the measured effect to its halfway point. What is called CC50 is the concentration at which the toxic effect on the cells reaches its halfway point. As a reminder, the EC90 is the concentration at which the effect reaches the 90% level. A word on the logD: it is the decadic logarithm of the distribution of all forms, ionised or not, between an organic phase and buffer at a given pH. What is called half-life is the time in which the quantity being followed falls by half.

Take `CSc1ncccc1C(=O)Nc1nc(-c2ccc3ccccc3c2)cs1`: the EC50 in data set [1] turned out to be 4500 nM; in data set [3], 4700 nM; in data set [5] it was 1060 nM. Also, the CC50 at 72 h in data set [2] is 107000 nM; in [7] it was above 40000 nM. Moreover, the EC90 in data set [3] was 930 nM. Also, the CC50 at 24 h in [4] amounted to 132000 nM. Also, the “log(activity)” value in data set [6] stood at 6.9. The solubility kinetic in data set [8] was below 1 µM. The logD in [9] came to 4.8. For the same molecule, the half-life in data set [10] was determined as 27 min; in data set [11], 35 min.
In the case of `CSc1ncccc1C(=O)Nc1nc(-c2cccc(-c3cccc(C#N)c3)c2)cs1`, the concentration for an effect of 90% (EC90) turned out to be 100 nM in [3]; 350 nM in data set [12]; 1500 nM in [14]; 300 nM in data set [16]; 300 nM in data set [18]. Moreover, the CC50 at 24 h in [4] is above 30000 nM. The “log(activity)” value is reported as 5.3 in data set [6]; 5.2 in data set [13]; 2.7 in [15]; 2.9 in data set [17]; 3.5 in data set [19]. Further, the CC50 at 72 h in [7] is above 30000 nM. Moreover, the solubility kinetic in [8] was below 1 µM. The same molecule displayed a logD in data set [9] of 3. The results for the half-life in data set [10] and in data set [11] were 31 min and 21 min, respectively. In [20], the CC50 was above 30000 nM.

Source of the values: ChEMBL document CHEMBL6074675, “4-Substituted-2-Thiazole Amides as Viral Replication Inhibitors of Alphaviruses” (J Med Chem, 2024).
